Species on record: Rattus norvegicus
Assay: DrugMatrix - Regimen: Daily Repeat
Format: toxicity, organism-based, Sprague-Dawley
Set-up: regimen Daily Repeat, gender Male, age 6-8 weeks
Settings: in vivo, po, route oral GAVAGE, […]; for CHLORIDE / CHOLESTEROL / CREATINE PHOSPHOKINASE / CREATININE / LACTATE DEHYDROGENASE / LIPASE / PHOSPHORUS / POTASSIUM / SODIUM / TOTAL BILIRUBIN / URIC ACID / ALANINE AMINOTRANSFERASE / ALBUMIN / ALKALINE PHOSPHATASE / ASPARTATE AMINOTRANSFERASE / BLOOD UREA NITROGEN / CARBON DIOXIDE: tissue Plasma; for ABSOLUTE BASOPHIL / ABSOLUTE EOSINOPHIL / ABSOLUTE LYMPHOCYTE / ABSOLUTE MONOCYTE / ABSOLUTE SEGMENTED NEUTROPHIL / BASOPHIL / EOSINOPHIL / ERYTHROCYTE COUNT / HEMATOCRIT / HEMOGLOBIN / LEUKOCYTE COUNT / LYMPHOCYTE / MEAN CORPUSCULAR HEMOGLOBIN / MEAN CORPUSCULAR HEMOGLOBIN CONCENTRATION / MEAN CORPUSCULAR VOLUME / NEUTROPHIL / NUCLEATED RED BLOOD CELLS / PLATELET COUNT: tissue Blood
[1] = 10 mg/kg, 120 h, dose level High, time 5 day
[2] = 72 h, dose 3.5 mg/Kg, dose level Low, time 3 day
[3] = 120 h, dose 3.5 mg/Kg, dose level High, time 5 day
[4] = 120 h, dose 3.5 mg/Kg, dose level Low, time 5 day
[5] = dose 3.5 mg/Kg, dose level High, time 28 day

## O=C(O)Cc1ccccc1Nc1c(Cl)cccc1Cl [DICLOFENAC]
[1]
  CHLORIDE: 99 MEQ/L
  CHOLESTEROL: 69.33 mg/dL
  CREATINE PHOSPHOKINASE: 210.67 u/L
  CREATININE: 0.1 mg/dL
  LACTATE DEHYDROGENASE: 77.33 u/L
  LIPASE: 9 u/L
  PHOSPHORUS: 9.63 mg/dL
  POTASSIUM: 5.24 MEQ/L
  SODIUM: 140.7 MEQ/L
  TOTAL BILIRUBIN: 0.1 mg/dL
  URIC ACID: 0.57 mg/dL
[2]
  ABSOLUTE BASOPHIL: 0 CELLS/uL
  ABSOLUTE EOSINOPHIL: 99.33 CELLS/uL
  ABSOLUTE LYMPHOCYTE: 11383.33 CELLS/uL
  ABSOLUTE MONOCYTE: 144 CELLS/uL
  ABSOLUTE SEGMENTED NEUTROPHIL: 540 CELLS/uL
  BASOPHIL: 0%
  EOSINOPHIL: 0.67%
  ERYTHROCYTE COUNT: 5.83 x10E6/uL
  HEMATOCRIT: 36.37%
  HEMOGLOBIN: 14 G/DL
  LEUKOCYTE COUNT: 12.17 x10E3/uL
  LYMPHOCYTE: 92.67%
  MEAN CORPUSCULAR HEMOGLOBIN: 24.03 pg
  MEAN CORPUSCULAR HEMOGLOBIN CONCENTRATION: 38.47 G/DL
  MEAN CORPUSCULAR VOLUME: 62.37 fL
  NEUTROPHIL: 5.33%
  NUCLEATED RED BLOOD CELLS: 0 /100WBC
  PLATELET COUNT: 741.67 x10E3/uL
  ALANINE AMINOTRANSFERASE: 65.67 u/L
  ALBUMIN: 4.03 G/DL
  ALKALINE PHOSPHATASE: 385.67 u/L
  ASPARTATE AMINOTRANSFERASE: 76.33 u/L
  BLOOD UREA NITROGEN: 14 mg/dL
  CARBON DIOXIDE: 34 mmol/L
  CHLORIDE: 101 MEQ/L
  CHOLESTEROL: 82.33 mg/dL
  CREATINE PHOSPHOKINASE: 146 u/L
  CREATININE: 0.13 mg/dL
  LACTATE DEHYDROGENASE: 92.67 u/L
  LIPASE: 12.33 u/L
  PHOSPHORUS: 9.37 mg/dL
  POTASSIUM: 5.57 MEQ/L
  SODIUM: 145.37 MEQ/L
  TOTAL BILIRUBIN: 0.2 mg/dL
  URIC ACID: 0.93 mg/dL
[3]
  BASOPHIL: 0.32%
  EOSINOPHIL: 0.48%
  ERYTHROCYTE COUNT: 7.46 x10E6/uL
  HEMATOCRIT: 47.98%
  HEMOGLOBIN: 15.12 G/DL
  LEUKOCYTE COUNT: 9.78 x10E3/uL
  LYMPHOCYTE: 81.22%
  MEAN CORPUSCULAR HEMOGLOBIN: 20.28 pg
  MEAN CORPUSCULAR HEMOGLOBIN CONCENTRATION: 31.52 G/DL
  MEAN CORPUSCULAR VOLUME: 64.32 fL
  NEUTROPHIL: 15.22%
  PLATELET COUNT: 1323.2 x10E3/uL
  ALANINE AMINOTRANSFERASE: 32 u/L
  ALBUMIN: 3.72 G/DL
  ALKALINE PHOSPHATASE: 340 u/L
  ASPARTATE AMINOTRANSFERASE: 77.6 u/L
  BLOOD UREA NITROGEN: 6.8 mg/dL
  CHLORIDE: 110 MEQ/L
  CHOLESTEROL: 66.4 mg/dL
  CREATINE PHOSPHOKINASE: 178.25 u/L
  CREATININE: 0.26 mg/dL
  PHOSPHORUS: 13.9 mg/dL
  POTASSIUM: 6.42 MEQ/L
  SODIUM: 150.8 MEQ/L
  TOTAL BILIRUBIN: 0.16 mg/dL
[4]
  ABSOLUTE BASOPHIL: 0 CELLS/uL
  ABSOLUTE EOSINOPHIL: 66 CELLS/uL
  ABSOLUTE LYMPHOCYTE: 7679.67 CELLS/uL
  ABSOLUTE MONOCYTE: 26 CELLS/uL
  ABSOLUTE SEGMENTED NEUTROPHIL: 795 CELLS/uL
  BASOPHIL: 0%
  EOSINOPHIL: 0.67%
  ERYTHROCYTE COUNT: 5.41 x10E6/uL
  HEMATOCRIT: 32.77%
  HEMOGLOBIN: 13.13 G/DL
  LEUKOCYTE COUNT: 8.57 x10E3/uL
  LYMPHOCYTE: 90%
  MEAN CORPUSCULAR HEMOGLOBIN: 24.33 pg
  MEAN CORPUSCULAR HEMOGLOBIN CONCENTRATION: 40.1 G/DL
  MEAN CORPUSCULAR VOLUME: 60.7 fL
  NEUTROPHIL: 9%
  NUCLEATED RED BLOOD CELLS: 0.33 /100WBC
  PLATELET COUNT: 1098.67 x10E3/uL
  ALANINE AMINOTRANSFERASE: 70.33 u/L
  ALBUMIN: 4 G/DL
  ALKALINE PHOSPHATASE: 422.67 u/L
  ASPARTATE AMINOTRANSFERASE: 77.67 u/L
  CARBON DIOXIDE: 32 mmol/L
  CHLORIDE: 99.5 MEQ/L
  CHOLESTEROL: 58.67 mg/dL
  CREATININE: 0.13 mg/dL
  LACTATE DEHYDROGENASE: 79 u/L
  LIPASE: 12.33 u/L
  PHOSPHORUS: 9.27 mg/dL
  POTASSIUM: 5.62 MEQ/L
  SODIUM: 142.7 MEQ/L
  TOTAL BILIRUBIN: 0.2 mg/dL
  URIC ACID: 0.5 mg/dL
[5]
  BASOPHIL: 0.51%
  EOSINOPHIL: 0.62%
  ERYTHROCYTE COUNT: 8.14 x10E6/uL
  HEMATOCRIT: 48.9%
  HEMOGLOBIN: 15.9 G/DL
  LEUKOCYTE COUNT: 10.63 x10E3/uL
  LYMPHOCYTE: 82.51%
  MEAN CORPUSCULAR HEMOGLOBIN: 19.56 pg
  MEAN CORPUSCULAR HEMOGLOBIN CONCENTRATION: 32.5 G/DL
  MEAN CORPUSCULAR VOLUME: 60.18 fL
  NEUTROPHIL: 13.48%
  PLATELET COUNT: 1264.5 x10E3/uL
  ALANINE AMINOTRANSFERASE: 29.7 u/L
  ALBUMIN: 3.93 G/DL
  ALKALINE PHOSPHATASE: 205 u/L
  ASPARTATE AMINOTRANSFERASE: 68.5 u/L
  BLOOD UREA NITROGEN: 12.1 mg/dL
  CHLORIDE: 109.6 MEQ/L
  CHOLESTEROL: 55.2 mg/dL
  CREATINE PHOSPHOKINASE: 206.4 u/L
  CREATININE: 0.51 mg/dL
  PHOSPHORUS: 11.24 mg/dL
  POTASSIUM: 6.38 MEQ/L
  SODIUM: 154.6 MEQ/L
  TOTAL BILIRUBIN: 0.21 mg/dL

From ChEMBL document CHEMBL3885881, “DrugMatrix”
